Experimental data published in US11390812B2, “Compound, composition, cured object, optically anisotropic body, and reflective film” (FUJIFILM Corporation, priority 2018, dated 2022).

Assays:
Type in all cases: physicochemical
[1] = Measurement of solution absorption spectrum (colorability evaluation); settings: chloroform solution, 1 cm cell; for λmax: wavelength of maximum light absorption coefficient in the region of 300 nm or more; for λ (1000): wavelength showing light absorption coefficient ε of 1000 in the region of 300 nm or more
Protocol: <Measurement of Solution Absorption Spectrum (Colorability Evaluation)>
A solution absorption spectrum of each of the compounds was measured using a spectrophotometer UV-3100PC manufactured by Shimadzu Corporation. Using chloroform as a solvent, a solution in which a predetermined amount of the compound was dissolved was measured in a 1 cm cell, and λmax and λ (1000) were calculated from the obtained spectrum and molecular weight. λmax represents a wavelength showing the maximum light absorption coefficient in the region of 300 nm or more, and λ (1000) represents a wavelength showing a light absorption coefficient ε of 1000 in the region of 300 nm or more. It can be evaluated that as wavelengths of λmax and λ (1000) became smaller (as wavelengths became shorter), colorability of the compound was more inhibited.
For example, λmax is preferably 310 nm or less. In addition, λ (1000) is preferably 350 nm or less and more preferably 325 nm or less.

[2] = Light fastness test of optically anisotropic film; settings: film of compound 50 parts with B-2 50 parts; xenon, 5 million lx·h for 50 hours, 63° C., 50% RH, oxygen-blocking; transmittance change at 420 nm
Protocol: <Light Fastness Evaluation>
(Production of Optically Anisotropic Film)
A coating liquid having the following composition was prepared and applied to a rubbing-treated glass equipped with an alignment film by spin-coating. Each composition was irradiated with ultraviolet rays of 500 mJ/cm^2 through a filter that cuts light having a wavelength of 350 nm or less on a hot plate heated to a temperature until showing a nematic phase, and thereby an optically anisotropic film was produced.
The produced optically anisotropic film was irradiated with light using a Super Xenon Weather Meter SX75 manufactured by Suga Test Instruments Co., Ltd. Using KU-1000100 manufactured by King Seisakusho Co., Ltd. as a UV cut filter, a light fastness test was conducted by irradiation of 5 million l×h of light for 50 hours under an oxygen-blocking condition. A temperature of the test subject (a temperature inside the test device) was set to 63° C. A relative humidity in the test device was 50% RH.
A transmittance change of the optically anisotropic film before and after the light fastness test was measured. Light fastness in a case where a transmittance change at 420 nm was less than 5% was evaluated as A, and light fastness in a case where a transmittance change at 420 nm was 5% or more was evaluated as B. As a transmittance change became small, light fastness was more excellent.

[3] = Measurement of Δn (refractive index anisotropy), wedge-shaped liquid crystal cell; settings: at 550 nm and 30° C.; for compounds liable to crystallize estimated from extrapolated values of mixtures with other liquid crystals
From the text: As a method of measuring the Δn, a method using a wedge-shaped liquid crystal cell described on page 202 of the Liquid Crystal Handbook (edited by Liquid Crystal Handbook Editing Committee, published by Maruzen Co., Ltd.) is generally used. In a case of a compound which is liable to crystallize, it is also possible to carry out evaluation with a mixture thereof with other liquid crystals and to estimate Δn from extrapolated values thereof.
The Δn corresponds to a measurement value at a wavelength of 550 nm at 30° C.
<Measurement of Δn (Refractive Index Anisotropy)>
Δn of each of the compounds was measured by a method using a wedge-shaped liquid crystal cell described on page 202 of the Liquid Crystal Handbook (edited by Liquid Crystal Handbook Editing Committee, published by Maruzen Co., Ltd.). In a case of the compound which is liable to crystallize, evaluation with a mixture thereof with other liquid crystals was carried out and Δn was estimated from extrapolated values thereof. The values in the table represent Δn's at 550 nm and 30° C.
Δn in Comparative Example 1 is a measurement value in a nematic phase.

[4] = Solubility evaluation in methyl ethyl ketone; settings: room temperature (23° C.), precipitation concentration
Protocol: Solubility of each of the compounds in methyl ethyl ketone was evaluated. A solution in which the compound was ultrasonically dissolved or dissolved by heating was produced. […] Solutions were produced at various concentrations for each of the compounds, and solubility of the compound was evaluated according to the following criteria, using a concentration at which the compound was precipitated as a precipitation concentration. As a precipitation concentration became higher, solubility of the compound was more excellent.
A: a precipitation concentration was 20% by mass or more
B: a precipitation concentration was 10% by mass or more and less than 20% by mass
C: a precipitation concentration was less than 10% by mass

SMILES | λmax [1] | λ (1000) [1] | Δn [3] | Light fastness [2] | Solubility [4]
C=CC(=O)OCCc1ccc(C#Cc2ccc(COc3ccc(C#Cc4ccc(CCOC(=O)C=C)cc4)cc3C(=O)OC)cc2)cc1 [Compound A-6] | 308 nm | 343 nm | 0.37 | A (a transmittance change at 420 nm was less than 5%) | A (a precipitation concentration was 20% by mass or more)
C=CC(=O)OCCc1ccc(C#Cc2ccc(COc3ccc(C#Cc4ccc(CCOC(=O)C=C)cc4)cc3)cc2)cc1 [Compound A-2] | 309 nm | 327 nm | 0.34 | A (a transmittance change at 420 nm was less than 5%) | C (a precipitation concentration was less than 10% by mass)
C=CC(=O)OCCc1ccc(C#Cc2ccc(CCc3ccc(C#Cc4ccc(CCOC(=O)C=C)cc4)cc3)cc2)cc1 [Compound A-1] | 309 nm | 320 nm | 0.30 | A (a transmittance change at 420 nm was less than 5%) | C (a precipitation concentration was less than 10% by mass)
C=CC(=O)OCCc1ccc(C#Cc2ccc(COc3ccc(C#Cc4ccc(CCOC(=O)C=C)cc4)cc3C(=O)OC(C)(C)C)cc2)cc1 [Compound A-7] | 309 nm | 339 nm | 0.33 | A (a transmittance change at 420 nm was less than 5%) | A (a precipitation concentration was 20% by mass or more)
C=CC(=O)OCCc1ccc(C#Cc2ccc(COc3ccc(C#Cc4ccc(CCOC(=O)C=C)cc4)cc3C)cc2)cc1 [Compound A-3] | 308 nm | 327 nm | 0.34 | A (a transmittance change at 420 nm was less than 5%) | B (a precipitation concentration was 10% by mass or more and less than 20% by mass)
CC(=O)OCCCCCCCCCCOc1ccc(C#Cc2ccc(OC(=O)c3ccc(C#Cc4ccc(OCCCCCCCCCCOC(C)=O)c(F)c4)cc3)cc2)cc1F [Compound B-1, reference compound] | 315 nm | 364 nm | 0.25 | B (a transmittance change at 420 nm was 5% or more) | C (a precipitation concentration was less than 10% by mass)

Continued, in another order:

λmax [1] | λ (1000) [1] | Δn [3] | SMILES | Light fastness [2] | Solubility [4]
308 nm | 329 nm | 0.33 | C=CC(=O)OCCc1ccc(C#Cc2ccc(COc3ccc(C#Cc4ccc(CCOC(=O)C=C)cc4)cc3C(C)(C)C)cc2)cc1 [Compound A-5] | A (a transmittance change at 420 nm was less than 5%) | A (a precipitation concentration was 20% by mass or more)
309 nm | 325 nm | 0.36 | C=CC(=O)OCCc1ccc(C#Cc2ccc(COc3ccc(C#Cc4ccc(CCOC(=O)C=C)cc4)cc3C(F)(F)F)cc2)cc1 [Compound A-4] | A (a transmittance change at 420 nm was less than 5%) | A (a precipitation concentration was 20% by mass or more)
